In patent US10781236B2, “Bacteriocin composition and method” (priority 2015, dated 2020):
≈ marks a conversion by molar mass, not a printed value. Read-outs that look alike come from different tables or passages of the source. Where a SMILES comes first, the peptide text is derived from it.

Columns and labels:
L. lactis IL1403 = type: cell-based, Lactococcus lactis
Procedure: The bacteriocin activity was assayed using a microtitre plate assay (Holo et al., 1991, supra). The plates were incubated at 30° C. for 8 h and the growth was measured spectrophotometrically at 600 nm (A600) with 15 min intervals using SPECTROstarNano (BMG LABTECH, Germany). The MIC was defined as the minimal bacteriocin concentration that inhibited the growth of the indicator strain by at least 50% (50% of the turbidity of the control culture without bacteriocin) in 200 μl culture. MIC is equal to one bacteriocin unit (BU).
All the peptides in the experiments were synthesized by Pepmic Co., LTD, China with 90-99% purity except for CerHA, CerHB and CerVC (85% purity). Aureocin A70F is almost identical to bacteriocin AureocinA70, both being made up of four peptides (peptide A, B, C and D) but in peptide D of Aureocin A70F leucine 29 is replaced with phenylalanine (EWU40578.1). Synthesized peptides were solubilized to a concentration of 0.1 to 10 mg/ml in 0.1% (vol/vol) trifluoroacetic acid and stored at −20° C. until use.
The three identified peptides termed GarKosA, GarKosB and GarKosC were chemically synthesized and tested for antimicrobial activity. The antimicrobial activity of the individual peptides was assessed against L. lactis IL1403 (Table 6).

[1] = Tryptophan-to-alanine GarA variants, antibacterial activity; type: cell-based; conditions: in combination with the other peptides of Garvicin KS
Procedure: The three tryptophan residues in GarA were replaced one by one with alanine (Table 9). Antibacterial activity was tested when used in combination with the other peptides of Garvicin KS.

| MIC, single peptide (L. lactis IL1403; IL1403, 8 h) | Compound | other results |
| --- | --- | --- |
| >6 µM | CC[C@H](C)[C@H](NC(=O)[C@H](CCCCN)NC(=O)[C@H](CCCCN)NC(=O)[C@H](CC(C)C)NC(=O)CNC(=O)CNC(=O)[C@H](Cc1ccc(O)cc1)NC(=O)[C@@H](NC(=O)[C@H](C)NC(=O)CNC(=O)CNC(=O)[C@H](C)NC(=O)[C@@H](NC(=O)CNC(=O)CNC(=O)[C@H](C)NC(=O)[C@H](Cc1ccccc1)NC(=O)[C@H](C)NC(=O)[C@H](CCCCN)NC(=O)CNC(=O)[C@H](CC(C)C)NC(=O)[C@H](CCSC)NC(=O)[C@H](CCCCN)NC(=O)[C@@H](NC(=O)[C@H](C)NC(=O)[C@H](C)NC(=O)CNC(=O)[C@@H](N)CCSC)C(C)C)C(C)C)[C@@H](C)O)C(=O)N[C@@H](Cc1ccccc1)C(=O)NCC(=O)O [CerV B] (H-MGAAVKMLGKAFAGGVAGGATYGGLKKIFG-OH; N-terminus and C-terminus assumed) | – |
| >6 µM | CC[C@H](C)[C@H](NC(=O)[C@H](CCCNC(=N)N)NC(=O)[C@@H](NC(=O)CNC(=O)[C@H](C)NC(=O)[C@H](CCC(=O)O)NC(=O)[C@H](Cc1c[nH]c2ccccc12)NC(=O)CNC(=O)[C@H](CC(C)C)NC(=O)[C@H](Cc1c[nH]c2ccccc12)NC(=O)[C@H](CO)NC(=O)[C@H](C)NC(=O)[C@H](C)NC(=O)[C@@H](NC(=O)CNC(=O)CNC(=O)[C@@H](NC(=O)[C@@H](NC(=O)[C@H](CCCCN)NC(=O)[C@H](CC(C)C)NC(=O)CNC(=O)CNC(=O)[C@H](CCCCN)NC(=O)[C@@H](NC(=O)[C@@H](NC(=O)[C@H](C)NC(=O)CNC(=O)[C@@H](N)CCSC)C(C)C)C(C)C)[C@@H](C)CC)[C@@H](C)CC)[C@@H](C)O)[C@@H](C)O)C(=O)N[C@@H](Cc1c[nH]c2ccccc12)C(=O)N[C@@H](CCCCN)C(=O)O [CerV C] (H-MGAVVKGGLKIIGGTAASWLGWEAGTRIWK-OH; N-terminus and C-terminus assumed) | – |
| – | CC[C@H](C)[C@H](NC(=O)[C@H](C)NC(=O)CNC(=O)[C@@H](N)CCSC)C(=O)N[C@H](C(=O)N[C@@H](CCCCN)C(=O)N[C@@H](C)C(=O)NCC(=O)N[C@@H](C)C(=O)N[C@@H](CCCCN)C(=O)N[C@H](C(=O)N[C@H](C(=O)NCC(=O)N[C@@H](CCCCN)C(=O)NCC(=O)N[C@@H](C)C(=O)N[C@@H](CC(C)C)C(=O)N[C@H](C(=O)NCC(=O)NCC(=O)NCC(=O)N[C@H](C(=O)N[C@@H](Cc1c[nH]c2ccccc12)C(=O)N[C@@H](CC(C)C)C(=O)N[C@@H](C)C(=O)N[C@@H](CCC(=O)O)C(=O)N[C@@H](CCCCN)C(=O)N[C@@H](CC(C)C)C(=O)N[C@@H](Cc1ccccc1)C(=O)NCC(=O)NCC(=O)N[C@@H](CCCCN)C(=O)O)C(C)C)[C@@H](C)O)C(C)C)[C@@H](C)CC)[C@@H](C)CC [Kos C] (H-MGAIIKAGAKIVGKGALTGGGVWLAEKLFGGK-OH; N-terminus and C-terminus assumed) | MIC, single peptide (L. lactis IL1403; L. lactis IL1403, synthetic single peptide, >=50% growth inhibition): 6 µM (≈ 18.6 µg/mL) |
| – | MGAIIKAGAKIVGKGVLGGGASWLGANVGEKIWK (Altered Sequence of GarA from Lactococcus garvieae with W26A Mutation) [GarA-26A] | antibacterial activity in words [1]: no antibacterial activity |
